Test results reported in patent publication US9957251B2 (Takeda Pharmaceutical Company Limited, priority 2014, dated 2018).

Assays:
CDK8/CycC = biological target: T1, CDK8/CycC (Homo sapiens, UniProt P49336); test: CDK8 inhibitory activity (TR-FRET, Kinase Tracer-236 displacement); type: binding; conditions: 1 μM of the test compound; read-out: Percent inhibition of CDK8 activity (%)
T1 construct: purchased Carna Biosciences
Protocol: (§1) The compound of the present invention was evaluated for its CDK8 inhibitory activity and CDK19 inhibitory activity by the following method. […] The primary diluted solution was dispensed in the amount of 2 μL/well to a 384-well plate, and then, a mixed solution of Eu^3+ Cryptate conjugated mouse monoclonal antibody anti-glutathione S-transferase (Cisbio) diluted 267-fold with an assay buffer and 60 nM Kinase Tracer-236 (Life technologies) was added thereto at 2 μL/well. After the addition, each kinase solution (84 ng/mL CDK8/CycC (Carna Biosciences) diluted with an assay buffer used for CDK8 inhibitory activity measurement, and 87 ng/mL CDC2L6/CycC (Carna Biosciences) diluted with an assay buffer used for CDK19 inhibitory activity measurement) was further added thereto at 2 μL/well. After the addition, the plate was left standing at room temperature for 1 hour, and then, the fluorescence intensity (excitation wavelength 320 nm, fluorescence wavelength 615 nm, 665 nm, delay time 50 μsec) was measured using an EnVision plate reader (PerkinElmer).

CDK19 (CDC2L6/CycC) = biological target: T2, CDK19 (CDC2L6/CycC) (Homo sapiens, UniProt Q9BWU1); test: CDK19 inhibitory activity (TR-FRET, Kinase Tracer-236 displacement); type: binding; conditions: 1 μM of the test compound; read-out: Percent inhibition of CDK19 activity (%)
T2 construct: purchased Carna Biosciences
T2 sequence (Q9BWU1 whole entry): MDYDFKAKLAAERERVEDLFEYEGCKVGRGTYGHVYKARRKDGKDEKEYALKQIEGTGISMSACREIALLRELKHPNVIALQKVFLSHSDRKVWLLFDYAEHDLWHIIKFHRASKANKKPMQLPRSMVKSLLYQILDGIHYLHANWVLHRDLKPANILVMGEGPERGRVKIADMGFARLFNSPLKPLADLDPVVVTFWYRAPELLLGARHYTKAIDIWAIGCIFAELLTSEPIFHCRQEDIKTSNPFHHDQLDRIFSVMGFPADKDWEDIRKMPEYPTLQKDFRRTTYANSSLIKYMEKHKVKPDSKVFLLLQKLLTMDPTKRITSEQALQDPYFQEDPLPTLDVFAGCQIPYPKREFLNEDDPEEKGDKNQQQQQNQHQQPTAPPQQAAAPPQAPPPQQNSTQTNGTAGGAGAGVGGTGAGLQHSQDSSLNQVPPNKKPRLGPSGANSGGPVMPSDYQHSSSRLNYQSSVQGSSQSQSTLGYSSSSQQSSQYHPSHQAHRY
T2 sequence (P24863 whole entry partner): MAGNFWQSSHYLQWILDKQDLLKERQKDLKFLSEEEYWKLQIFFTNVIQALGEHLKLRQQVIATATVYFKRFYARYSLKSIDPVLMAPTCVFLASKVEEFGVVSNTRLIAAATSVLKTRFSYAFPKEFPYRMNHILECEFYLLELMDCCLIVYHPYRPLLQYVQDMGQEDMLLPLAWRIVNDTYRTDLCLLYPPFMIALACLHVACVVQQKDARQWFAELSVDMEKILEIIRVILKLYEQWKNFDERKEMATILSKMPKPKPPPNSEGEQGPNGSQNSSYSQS
Protocol: as §1

[1] = system: human multiple myeloma RPMI8226 cells; test: Inhibitory activity against human multiple myeloma RPMI8226 cell growth (CellTiter-Glo); type: cell-based; conditions: Homo sapiens, RPMI-8226, 192 h, 1 μM of the test compound, cultured for 8 days; read-out: Percent inhibition of RPMI8226 cell growth (%)
Protocol: The compound of the present invention was evaluated for its inhibitory activity against human multiple myeloma RPMI8226 cell growth by the following method.
A suspension of human multiple myeloma RPMI8226 cells (purchased from the Health Protection Agency) was inoculated at 40 μL (300 cells/well) to a 384-well plate and cultured at 37° C. for 1 day in a 5% CO2 incubator. After the culture, each test compound solution was added thereto at a test concentration of 1 μM using TECAN D300, and the cells were further cultured for 8 days. After the culture, CellTiter-Glo™ Luminescent Cell Viability Assay reagent (Promega) was added at 40 μL/well to a 384-well plate, and the amount of luminescence was measured using a luminometer. Inhibitory activity against human multiple myeloma RPMI8226 cell growth (percent inhibition (%)) of the test compound was calculated according to the following formula, which is based on the hypothesis that the amount of residual ATP reflects the number of cells. In this formula, 100% control represents the amount of luminescence from a well with only 0.1% DMSO added. Percent inhibition (%)=(1−(amount of luminescence of the test compound)÷(100% control))×100

T1 sequence (P49336 whole entry): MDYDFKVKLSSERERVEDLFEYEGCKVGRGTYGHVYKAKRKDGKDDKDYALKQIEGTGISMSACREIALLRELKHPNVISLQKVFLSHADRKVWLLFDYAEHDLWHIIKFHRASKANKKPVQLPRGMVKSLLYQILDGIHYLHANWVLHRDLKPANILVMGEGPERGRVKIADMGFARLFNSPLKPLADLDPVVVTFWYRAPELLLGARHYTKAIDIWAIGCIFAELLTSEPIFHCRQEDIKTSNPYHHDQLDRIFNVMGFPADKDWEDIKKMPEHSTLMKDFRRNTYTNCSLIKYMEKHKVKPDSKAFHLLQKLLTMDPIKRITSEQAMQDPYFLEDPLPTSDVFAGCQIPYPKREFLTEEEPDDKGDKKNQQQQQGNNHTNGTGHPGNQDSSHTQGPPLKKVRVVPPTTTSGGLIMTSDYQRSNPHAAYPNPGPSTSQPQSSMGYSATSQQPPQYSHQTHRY
T1 sequence (P24863 whole entry partner): as the sequence (P24863 whole entry partner) above

| SMILES | inhibition at 1 µM (CDK8/CycC) [%] | inhibition at 1 µM (CDK19 (CDC2L6/CycC)) [%] | inhibition at 1 µM [1] [%] |
| --- | --- | --- | --- |
| CC(C)(O)Cc1ccc(NC(=O)/C=C/c2cncc(F)c2-c2cnn(C3CC3)c2)c(F)c1 [Example 332, (2E)-3-(4-(1-Cyclopropyl-1H-pyrazol-4-yl)-5-fluoropyridin-3-yl)-N-(2-fluoro-4-(2-hydroxy-2-methylpropyl)phenyl)acrylamide] | 102 | 99 | 60 |
| Cn1cc(-c2ccncc2/C=C/C(=O)Nc2ccc(CC#N)cc2)cn1 [Example 284, (2E)-N-(4-(cyanomethyl)phenyl)-3-(4-(1-methyl-1H-pyrazol-4-yl)pyridin-3-yl)acrylamide] | 92 | 95 | 57 |
| Cn1cc(-c2ccncc2/C=C/C(=O)Nc2ccc3c(c2)CCO3)cn1 [Example 172, (2E)-N-(2,3-dihydro-1-benzofuran-5-yl)-3-(4-(1-methyl-1H-pyrazol-4-yl)pyridin-3-yl)acrylamide] | 96 | 95 | 55 |
| Cn1cc(-c2ccncc2/C=C/C(=O)Nc2ccc(CN3CCCC3CO)cc2)cn1 (stereo not drawn) [Example 76, (2E)-N-(4-((2-(hydroxymethyl)pyrrolidin-1-yl)methyl)phenyl)-3-(4-(1-methyl-1H-pyrazol-4-yl)pyridin-3-yl)acrylamide] | 104 | 93 | 52 |
| O=C(/C=C/c1cnccc1-c1cnn(C2CC2)c1)Nc1ccc(CN2CC3(COC3)C2)cc1 [Example 308, (2E)-3-(4-(1-cyclopropyl-1H-pyrazol-4-yl)pyridin-3-yl)-N-(4-(2-oxa-6-azaspiro [3.3]hept-6-ylmethyl)phenyl)acrylamide] | 110 | 98 | 56 |
| Cn1cc(-c2ccncc2/C=C/C(=O)Nc2ccc(Cn3ccnc3)cc2)cn1 [Example 275, (2E)-N-(4-(1H-Imidazol-1-ylmethyl)phenyl)-3-(4-(1-methyl-1H-pyrazol-4-yl)pyridin-3-yl)acrylamide] | 102 | 98 | 64 |

More lines, main results first:

| inhibition at 1 µM (CDK8/CycC) [%] | inhibition at 1 µM (CDK19 (CDC2L6/CycC)) [%] | SMILES | inhibition at 1 µM [1] [%] |
| --- | --- | --- | --- |
| 100 | 98 | Cn1cc(-c2ccncc2/C=C/C(=O)Nc2ccc(CN3CCOCC3)cc2)cn1 [Example 31, (2E)-3-(4-(1-Methyl-1H-pyrazol-4-yl)pyridin-3-yl)-N-(4-(morpholin-4-ylmethyl)phenyl)acrylamide] | 60 |
| 101 | 101 | O=C(/C=C/c1cnccc1-c1cnn(Cc2ccccc2)c1)Nc1ccc(CN2CCOCC2)cc1 [Example 93, (2E)-3-(4-(1-benzyl-1H-pyrazol-4-yl)pyridin-3-yl)-N-(4-(morpholin-4-ylmethyl)phenyl)acrylamide] | 63 |
| 97 | 99 | Cn1cc(-c2ccncc2/C=C/C(=O)Nc2ccc(CN3CCOCC3)c(O)c2)cn1 [Example 148, (2E)-N-(3-Hydroxy-4-(morpholin-4-ylmethyl)phenyl)-3-(4-(1-methyl-1H-pyrazol-4-yl)pyridin-3-yl)acrylamide] | 54 |
| 96 | 100 | CCn1cc(-c2ccncc2/C=C/C(=O)Nc2ccc(CN3CCOCC3)cc2)cn1 [Example 92, (2E)-3-(4-(1-Ethyl-1H-pyrazol-4-yl)pyridin-3-yl)-N-(4-(morpholin-4-ylmethyl)phenyl)acrylamide] | 63 |
| 96 | 101 | CC(=O)n1cc(-c2ccncc2/C=C/C(=O)Nc2ccc(CN3CCOCC3)cc2)cn1 [Example 218, (2E)-3-(4-(1-Acetyl-1H-pyrazol-4-yl)pyridin-3-yl)-N-(4-(morpholin-4-ylmethyl)phenyl)acrylamide] | 65 |
